The record followed here is patent US8501732B2, “Aminomethyl quinolone compounds” (Hoffmann-La Roche Inc., priority 2011, dated 2013).

Structures can show the parent of a compound that is named as a salt.

The target of one experiment is JNK1 (Homo sapiens (Human), UniProt P45983). In words: In Vitro JNK1 Assay (TR-FRET, phosphorylation of GST-c-Jun).
Chain of JNK1 (P45983 whole entry): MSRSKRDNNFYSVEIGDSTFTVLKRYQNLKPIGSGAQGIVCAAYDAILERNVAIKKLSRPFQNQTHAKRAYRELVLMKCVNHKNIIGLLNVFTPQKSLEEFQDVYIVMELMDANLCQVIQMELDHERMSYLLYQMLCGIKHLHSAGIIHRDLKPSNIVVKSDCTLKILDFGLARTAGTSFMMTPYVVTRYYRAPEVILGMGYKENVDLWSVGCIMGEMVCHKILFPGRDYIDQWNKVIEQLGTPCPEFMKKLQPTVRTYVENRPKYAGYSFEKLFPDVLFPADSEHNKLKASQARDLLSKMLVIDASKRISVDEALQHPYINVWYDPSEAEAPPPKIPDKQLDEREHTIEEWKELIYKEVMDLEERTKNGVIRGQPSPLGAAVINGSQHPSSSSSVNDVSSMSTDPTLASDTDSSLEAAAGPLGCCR
Conditions: not given
It counts as biochemical. The protocol:
Phosphorylation of GST-c-Jun protein (amino acid residues 1-79) was measured as JNK1 activity. […] The reaction buffer contained 50 mM HEPES, pH […], 1 mM DTT, 0.1 mM Na3VO4 and 0.2 mg/mL BSA. After 30 min. incubation at room temperature, the reaction was terminated by adding buffer containing 8 mM EDTA and a polyclonal anti-phospho-c-Jun antibody (Cell Signaling #9261L), followed by an additional incubation of 30 min. at room temperature. […] Time-resolved Fluorescence Resonance Energy Transfer (TR-FRET) signals were measured 1 hr. later on the EnVision reader (Perkin Elmer). Compound potency was assessed at 10 serially diluted concentrations. Percentage of inhibition at each concentration was determined to generate an IC50 value for each compound.
For orientation: TR-FRET usually uses a lanthanide donor and a delayed reading to cut background.
For the compound `COC(=O)c1c(CNC(=O)Oc2ccccc2)c(=O)c2ccc(Cl)cc2n1-c1ccccc1` [Example I-210, 7-Chloro-4-oxo-3-(phenoxycarbonylamino-methyl)-1-phenyl-1,4-dihydro-quinoline-2-carboxylic acid methyl ester], the concentration for half-maximal inhibition (IC50) (as a rule, the concentration that inhibits the measured activity by half) came to 1100 nM.

Still in this experiment, the particulars now being: 0.2 nM active JNK1 kinase, 26.7 nM GST-c-Jun, 2 μM ATP, 30 min at room temperature.
`O=C(NCc1cn(-c2ccccc2)c2cc(Cl)ccc2c1=O)c1ccc2cc[nH]c2c1` [Example I-46, 1H-Indole-6-carboxylic acid (7-chloro-4-oxo-1-phenyl-1,4-dihydro-quinolin-3-ylmethyl)-amide] came in with an IC50 of 140 nM. The compound `O=C(NCc1cn(-c2ccccc2)c2cc(Cl)ccc2c1=O)c1cccc(F)c1F` [Example I-59, N-(7-Chloro-4-oxo-1-phenyl-1,4-dihydro-quinolin-3-ylmethyl)-2,3-difluoro-benzamide] returned an IC50 of 1700 nM.

On to `O=C(NCc1cn(-c2ccccc2)c2cc(Cl)ccc2c1=O)NC1CCN(C(=O)OCc2ccccc2)CC1` [Example I-195, 4-[3-(7-Chloro-4-oxo-1-phenyl-1,4-dihydro-quinolin-3-ylmethyl)-ureido]-piperidine-1-carboxylic acid benzyl ester], for which the IC50 came out at 580 nM. `COc1ccccc1Cn1ccc(C(=O)NCc2cn(-c3ccccc3)c3cc(Cl)ccc3c2=O)cc1=O` [Example I-48, 1-(2-Methoxy-benzyl)-2-oxo-1,2-dihydro-pyridine-4-carboxylic acid (7-chloro-4-oxo-1-phenyl-1,4-dihydro-quinolin-3-ylmethyl)-amide] came in with an IC50 of 180 nM. Take `O=C(NCc1cn(-c2ccccc2)c2cc(Cl)ccc2c1=O)c1cnc2nc[nH]c2c1` [Example I-49, 1H-Imidazo[4,5-b]pyridine-6-carboxylic acid (7-chloro-4-oxo-1-phenyl-1,4-dihydro-quinolin-3-ylmethyl)-amide]: half-maximal inhibition (IC50) was put at 230 nM. `N#C/N=C(/NCc1cn(-c2ccccc2)c2cc(Cl)ccc2c1=O)N1CCOCC1` [Example I-177, [(7-Chloro-4-oxo-1-phenyl-1,4-dihydro-quinolin-3-ylmethyl)-amino]-morpholin-4-yl-methylene-cyanamide]: the IC50 stood at 1200 nM. As for `NC(=O)C1CCN(c2ccc(C(=O)NCc3cn(-c4ccccc4)c4cc(Cl)ccc4c3=O)cn2)CC1` [Example I-86, 3,4,5,6-Tetrahydro-2H-[1,2′]bipyridinyl-4,5′-dicarboxylic acid 4-amide-5′-[(7-chloro-4-oxo-1-phenyl-1,4-dihydro-quinolin-3-ylmethyl)-amide]], the IC50 came to 110 nM. The same measure, in the same setting: to `COC(=O)[C@H]1CC[C@H](NC(=O)NCc2cn(-c3ccccc3)c3cc(Cl)ccc3c2=O)CC1` [Example I-189, 4-[3-(7-Chloro-4-oxo-1-phenyl-1,4-dihydro-quinolin-3-ylmethyl)-ureido]-cyclohexanecarboxylic acid methyl ester] belongs 2000 nM. Take `CC(C)(C)OC(=O)N1CCC(C(=O)NCc2cn(-c3ccccc3)c3cc(Cl)ccc3c2=O)C1` (stereo not drawn) [Example I-51, 3-[(7-Chloro-4-oxo-1-phenyl-1,4-dihydro-quinolin-3-ylmethyl)-carbamoyl]-pyrrolidine-1-carboxylic acid tert-butyl ester]: half-maximal inhibition (IC50) required 330 nM.

For the compound `COC(=O)c1c(CNC(=O)c2ccccc2Cl)c(=O)c2ccc(Cl)cc2n1-c1ccccc1` [Example I-148, 7-Chloro-3-[(2-chloro-benzoylamino)-methyl]-4-oxo-1-phenyl-1,4-dihydro-quinoline-2-carboxylic acid methyl ester], inhibition was half-maximal at 430 nM (IC50).

The compound `O=C(NCc1cn(-c2ccccc2F)c2cc(F)ccc2c1=O)c1ccc(N2CCS(=O)(=O)CC2)nc1` [Example I-107, 6-(1,1-Dioxo-1-thiomorpholin-4-yl)-N-[7-fluoro-1-(2-fluoro-phenyl)-4-oxo-1,4-dihydro-quinolin-3-ylmethyl]-nicotinamide] showed an IC50 of 100 nM. In the case of `Cn1cnc2cc(C(=O)NCc3cn(-c4ccccc4)c4cc(Cl)ccc4c3=O)cnc21` [Example I-45, 3-Methyl-3H-imidazo[4,5-b]pyridine-6-carboxylic acid (7-chloro-4-oxo-1-phenyl-1,4-dihydro-quinolin-3-ylmethyl)-amide], the IC50 came out at 110 nM. As to `COC(=O)c1c(CNC(=O)c2ccc(N(C)C)cc2)c(=O)c2ccc(OC)cc2n1-c1ccccc1` [Example I-167, 3-[(4-Dimethylamino-benzoylamino)-methyl]-7-methoxy-4-oxo-1-phenyl-1,4-dihydro-quinoline-2-carboxylic acid methyl ester], half-maximal inhibition (IC50) required 180 nM. For `COC(=O)c1c(CNC(=O)N2CCOCC2)c(=O)c2ccc(Cl)cc2n1-c1ccccc1` [Example I-209, 7-Chloro-3-{[(morpholine-4-carbonyl)-amino]-methyl}-4-oxo-1-phenyl-1,4-dihydro-quinoline-2-carboxylic acid methyl ester], the IC50 amounted to 150 nM.

As for `CS(=O)(=O)C1CCN(C(=O)N2CCC(NC(=O)NCc3cn(-c4ccccc4)c4cc(Cl)ccc4c3=O)CC2)CC1` [Example I-199, 1-(7-Chloro-4-oxo-1-phenyl-1,4-dihydro-quinolin-3-ylmethyl)-3-[1-(4-methanesulfonyl-piperidine-1-carbonyl)-piperidin-4-yl]-urea], the IC50 is 1600 nM.

For `O=C(NCc1cn(-c2ccccc2Cl)c2cc(Cl)ccc2c1=O)c1ccc(-c2cn[nH]c2)nc1` [Example I-102, N-[7-Chloro-1-(2-chloro-phenyl)-4-oxo-1,4-dihydro-quinolin-3-ylmethyl]-6-(1H-pyrazol-4-yl)-nicotinamide], half-maximal inhibition (IC50) was put at 740 nM. For the compound `CS(=O)(=O)N1CCC(NC(=O)NCc2cn(-c3ccccc3)c3cc(Cl)ccc3c2=O)CC1` [Example I-197, 1-(7-Chloro-4-oxo-1-phenyl-1,4-dihydro-quinolin-3-ylmethyl)-3-(1-methanesulfonyl-piperidin-4-yl)-urea], the IC50 was 2100 nM.

As for `O=C(NCc1cn(-c2ccccc2)c2cc(Cl)ccc2c1=O)NC1C2CC3CC1CC(O)(C3)C2` (stereo not drawn) [Example I-191, 1-(7-Chloro-4-oxo-1-phenyl-1,4-dihydro-quinolin-3-ylmethyl)-3-(5-hydroxy-adamantan-2-yl)-urea], the IC50 was determined as 240 nM. For the compound `O=C(NCc1cn(-c2ccccc2)c2cc(Cl)ccc2c1=O)c1ccc(N2CC[C@H](O)C2)nc1` [Example I-87, N-(7-Chloro-4-oxo-1-phenyl-1,4-dihydro-quinolin-3-ylmethyl)-6-((S)-3-hydroxy-pyrrolidin-1-yl)-nicotinamide], the IC50 stood at 120 nM.

As for `O=C(NCc1c(-c2ncco2)n(-c2ccccc2)c2cc(Cl)ccc2c1=O)c1ccc(Cl)nc1` [Example I-6, 6-Chloro-N-(7-chloro-2-oxazol-2-yl-4-oxo-1-phenyl-1,4-dihydro-quinolin-3-ylmethyl)-nicotinamide], the IC50 is 29 nM. As to `CN(C)c1ccc(NC(=O)NCc2cn(-c3ccccc3)c3cc(Cl)ccc3c2=O)cc1` [Example I-202, 1-(7-Chloro-4-oxo-1-phenyl-1,4-dihydro-quinolin-3-ylmethyl)-3-(4-dimethylamino-phenyl)-urea], the midpoint of inhibition, the IC50, lay at 630 nM.

In turn, `O=C(NCc1cn(-c2ccccc2Cl)c2cc(Cl)ccc2c1=O)c1ccc(Br)nc1` [Example I-101, 6-Bromo-N-[7-chloro-1-(2-chloro-phenyl)-4-oxo-1,4-dihydro-quinolin-3-ylmethyl]-nicotinamide] registered an IC50 of 600 nM. Regarding `O=c1c(CNc2ccnc(N3CCCCC3)n2)cn(-c2ccccc2)c2cc(Cl)ccc12` [Example I-174, 7-Chloro-1-phenyl-3-[(2-piperidin-1-yl-pyrimidin-4-ylamino)-methyl]-1H-quinolin-4-one trifluoroacetate salt], half-maximal inhibition (IC50) was put at 350 nM. Same read-out and setting: the result for `NC(=O)c1ccc(C(=O)NCc2cn(-c3ccccc3)c3cc(Cl)ccc3c2=O)cc1` [Example I-50, N-(7-Chloro-4-oxo-1-phenyl-1,4-dihydro-quinolin-3-ylmethyl)-terephthal-amide] reads 300 nM; that for `O=C(NCc1cn(-c2ccccc2)c2cc(Cl)ccc2c1=O)N1CCCCC1` [Example I-188, Piperidine-1-carboxylic acid (7-chloro-4-oxo-1-phenyl-1,4-dihydro-quinolin-3-yl-methyl)-amide], 1700 nM; that for `O=C(NCc1cn(-c2ccccc2)c2cc(Cl)ccc2c1=O)c1cc(F)cc(F)c1` [Example I-58, N-(7-Chloro-4-oxo-1-phenyl-1,4-dihydro-quinolin-3-ylmethyl)-3,5-difluoro-benzamide], 630 nM. Regarding `COC(=O)c1c(CNC(=O)c2ccccc2OC)c(=O)c2ccc(Cl)cc2n1-c1ccccc1` [Example I-149, 7-Chloro-3-[(2-methoxy-benzoylamino)-methyl]-4-oxo-1-phenyl-1,4-dihydro-quinoline-2-carboxylic acid methyl ester], inhibition was half-maximal at 670 nM (IC50). The compound `COC(=O)c1ccc(C(=O)NCc2c(-c3ncco3)n(-c3ccccc3)c3cc(Cl)ccc3c2=O)cn1` [Example I-5, 5-[(7-Chloro-2-oxazol-2-yl-4-oxo-1-phenyl-1,4-dihydro-quinolin-3-ylmethyl)-carbamoyl]-pyridine-2-carboxylic acid methyl ester] returned an IC50 of 25 nM.

`O=C(NCc1cn(-c2ccccc2)c2cc(Cl)ccc2c1=O)c1cn(Cc2ccccc2)nn1` [Example I-55, 1-Benzyl-1H-[1,2,3]triazole-4-carboxylic acid (7-chloro-4-oxo-1-phenyl-1,4-dihydro-quinolin-3-ylmethyl)-amide] showed an IC50 of 700 nM.
